In patent US20170037425A1, “METHOD FOR IMPROVING PLANT TRAIT” (SHANGHAI INSTITUTES FOR BIOLOGICAL SCIENCES, CHINESE …, priority 2012, published 2017):

Legend:
[1] = tested on: Brassica; test: Soluble protein content of transgenic Brassica; format: in vivo, Brassica napus L.; details: three lines
Protocol: In this invention, three lines of mCherry transgenic Brassica were selected and the content of soluble protein was measured and compared with that in WT. The content of soluble protein in mCherry transgenic Brassica was increased.

[2] = In vitro H2O hydrolysis and oxygen evolution catalyzed by LEAT protein under light; format: biochemical; set-up: key to O2 evolution activity: +: similar O2 evolution activity as that of YFP; ++: higher O2 evolution activity than that of YFP by at least one order of magnitude; weak: lower activity than that of YFP by at least one order of magnitude
Protocol: 1.85 ml of 50 mM phosphate buffer (pH6.5) was added in the reaction vessel of Clark-type oxygen electrode, then LEAT proteins (at a final concentration of 0.02-1 μg/ml) and 400 μM 2,3,5-trimethyl-1,4-benzoquinone (TMBQ) or other quinones were sequentially added into the buffer in dark. The oxygen evolution rate was measured under the light with corresponding excitation wave length for LEAT proteins and light intensity at 1-2 μmol m^−2 s^−1.

[3] = tested on: Brassica; test: Chlorophyll and pigment contents of transgenic Brassica leaves; format: in vivo, Brassica napus L.
Protocol: Chlorophylls and pigments were extracted from Brassica leaves with 80% acetone. Chlorophyll contents were measured as described by Arnon D J 1949, Plant Physiol 24:1-15. Carotenoid contents were measured as described by Niyogi et al., (1997), Proc. Natl. Acad. Sci. U.S.A. 94, 14162-14167.

[4] = tested on: Brassica; test: Leaf absorption spectrum of transgenic Brassica; format: in vivo, Brassica napus L.; details: different light intensities
Protocol: Reflectance and transmittance of Brassica leaves under different light intensities were measured using fiber optic spectrometer with an integrating sphere (Ocean Optics, Britain). The absorbance of the leaves under different light intensities was calculated with the equation: absorbance=100%) (without leaf)−transmittance−reflectance.

[5] = tested on: Brassica; test: State transition of leaves and thylakoids of transgenic Brassica; format: in vivo, Brassica napus L.
Protocol: State transition of leaves was measured using PAM-101/PDA100 fluorometer (Walz) as described in (L. Dietzel et al., The Plant Cell 23, 2964 (Aug. 1, 2011). PSII light with a PFD of 100 μmol m^−2s^−1 was provided by a Schott KL-1500 lamp (Walz). PSI light with a PFD of 6 μmol m^−2s^−1 was provided by PAM-101 (Walz). The half-time (t1/2) of state 1-state 2 transition was determined by calculate the decrease of the fluorescence after PSI light was switched off. The half-time for state 2-state 1 transition was determined following L. Dietzel et al., The Plant Cell 23, 2964 (Aug. 1, 2011). Thylakoids isolated from Brassica leaves were added into STN buffer supplemented with 10 mM ATP in a final concentration of 5-10 μg/ml. Half of thylakoids were illuminated and half of the thylakoids were treated in dark for 20-30 min in room temperature, respectively. Chlorophyll α fluorescence emission spectra were recorded at 77K (in liquid nitrogen) using F-4600 spectrofluorometer (Hitachi, Japan), The excitation wavelength was set at 435 nm. Data were the average of four measurements.

[6] = tested on: Brassica; test: Redox metabolites (NAD+/NADH, NADP+/NADPH, GSSG/GSH, ASC/DHA) in transgenic Brassica leaves; format: in vivo, Brassica napus L.; details: transgenic Brassica transferred from red+blue light to white light
Protocol: Leaves were from the 4-week-old Brassica plants grown under white light or red+blue light, or 2 h after being switched from red+blue light to white light. Extraction of metabolites from leaves and measurement of NAD^+/NADH, NADP^+/NADPH, GSSG/GSH and ASC/DHA follows G. Queval, G. Noctor, Anal Biochem. 363, 58 (2007).

[7] = tested on: Brassica; test: Growth, biomass and yield of transgenic Brassica; format: in vivo, Brassica napus L.; details: for fresh and dry weights vs WT and empty vector control: 4-week-old transgenic Brassica; for plant growth vs WT and empty vector control: 3 weeks
Text: FIG. 14. (A) WT, empty vector control (pHB) and mCherry transgenic Brassica (L1-L3) were germinated and grown for one week in the phytotron under white light (PPFD:250 μmol m^−2s^−1). Then the plants were moved and grown under white light, green light (PFD: 60 μmol m^−2s^−1) or red+blue light (red light PFD; 60 μmol m^−2s^−1, blue light PFD; 10 μmol m^−2s^−1) for another 3 weeks and photos were taken, (B) Comparison of the fresh weights and dry weights of WT and mCherry transgenic Brassica grown under white light, green light or red+blue light for four weeks. Values in the figures are means±SD, for WT, n=10, for transgenic plant transformed with empty vector control pHB and mCherry, data were the averages of three independent lines and 10 plants for each line. **p≦0.01. (C) Net photosynthetic rate of WT and mCherry transgenic Brassica measured under different light qualities. Nine-week-old WT and mCherry transgenic Brassica grown in the phytotron (PPFD: 250 μmol m^−2s^−1) were transferred and treated with different qualities of light for 4 days and net photosynthetic rate was measured. (D) Net photosynthetic rate of WT and mCherry transgenic Brassica grow in the natural field measured under different PPFD as light source. Net photosynthetic rate was measured in situ between 10:00 am and 12:00 pm. […] FIG. 15. (A) Measurement of the fresh weight and dry weight per plant of 7-week-old WT and mCherry transgenic Brassica plants grown in the natural field conditions. Values in the figures are means±SD, n=10. *p≦0.05, **p≦0.01. (B) Comparison of the plant size, silique size, seed size, grain yield per plant and 1000-seed weight at the harvesting time. Values in the figures are means±SD, n=10. *p≦0.05, **p≦0.01. Wild type (WT), transgenic Brassica with empty vector (pHB) and mCherry transgenic Brassica (L1-L3) were germinated in the phytotron under white light (light intensity: 250 μmol m^−2s^−1) for 1 week. Then the plants were transferred and continued to grow under white light, green light (light intensity: 60 μmol m^−2s^−1), red+blue light (intensity of red light: 60 μmol m^−2s^−1; intensity of blue light: 10 μmol m^−2s^−1). The […] were taken three weeks after transfer.

[8] = tested on: Atp B, D1, Psa D, Lhcb1, Lhca1 and cyt f; test: Western blot of photosynthesis related proteins in transgenic Brassica leaves; format: in vivo, Brassica napus L.
[9] = transgenic Brassica, young seedling stage

## mCherry: red fluorescent protein, amino acid sequence SEQ ID NO: 2
[1]
  content of soluble protein vs WT: increased
[2]; TMBQ substituted with DQ or UQ
  water photohydrolysis and O2 evolution activity under light: does not have water photohydrolysis and O2 evolution activity
[2]; different quinones, under light
  activity of water hydrolysis among the quinones tested (order): TMBQ>DMBQ2>MBQ>DMBQ1
[2]; water hydrolysis and O2 evolution under light, relative to YFP
  O2 evolution activity: +
[3]
  accessory photosynthetic pigments (carotenoids) content: increased
  chlorophyll content and ratio of Chl a/b: did not change
[4]
  light energy absorbed by leaves: significantly increased
[5]; transgenic Brassica grown under red+blue light, 77K fluorescence
  state transition of thylakoid membrane: no significant difference
[5]; transgenic Brassica grown under white light, 77K fluorescence
  percentage of state transition of thylakoid membrane: increased
[5]; transgenic Brassica live leaf
  t0.5 for state transition between St1 and St2: significantly decreased
[6]
  content of reduced metabolites or ratio of reduced to oxidized metabolites (NADH, NADPH, ascorbate, GSH): increased
[7]; red+blue light
  fresh and dry weights vs WT and empty vector control: no significant difference
[7]; white or green light
  fresh and dry weights vs WT and empty vector control: significantly increased
[7]; transgenic Brassica
  1000-seed weight, increase vs WT: 25%
  grain yield per plant, increase vs WT: 30 to 100%
[7]; transgenic Brassica at harvest
  1000-seed weight vs WT (in words): increased
  grain yield per plant vs WT (in words): increased
  seed size vs WT: significantly increased
[7]; transgenic Brassica, natural field conditions
  growth and biomass accumulation: stimulated the growth and biomass accumulation
[7]; transgenic Brassica, red+blue light
  plant growth vs WT and empty vector control: No significant difference
[7]; transgenic Brassica, white light and green light
  plant growth vs WT and empty vector control: grew better than WT and empty vector control plants
[7]; [9]
  dry weight, increase vs WT: 78%
  fresh weight, increase vs WT: 66.7%
[8]; transgenic Brassica grown under red+blue light
  expression of photosynthesis related proteins vs WT: no significant difference
[8]; transgenic Brassica grown under white light
  expression of photosynthesis related proteins vs WT: significantly increased
